Measurements published in US9914722B2, “Compounds for treating spinal muscular atrophy” (PTC Therapeutics Inc., priority 2012, dated 2018).
“Also recorded” adds a separate entry of the source.

System: human SMN1 minigene full length and Δ7 mRNA (SMN1-A minigene)
Assay: Human SMN1 minigene mRNA end-point semi-quantitative RT-PCR splicing assay in cultured cells
Type: cell-based
Conditions: HEK293H cells transfected with SMN1-A minigene, 7 hour, increasing concentrations, FIG. 8
Excerpt: Human SMN1 Minigene mRNA End-Point Semi-Quantitative RT-PCR Splicing Assay in Cultured Cells
The RT-PCR assay is used to visualize and quantify the levels of the human SMN1 minigene full length and Δ7 mRNA in primary cells and cell lines expressing the human SMN1 minigene construct treated with a test compound.
Using the procedure for the preparation of the SMN2 minigene construct described in Biological Example 1, the SMN1 version of the minigene is generated by replacing the sixth nucleotide of exon 7 (a thymine residue) of the SMN2-A minigene construct to cytosine using site-directed mutagenesis. Thus, similar to the SMN2-A minigene construct, the SMN1 minigene construct has a single adenine residue inserted after nucleic residue 48 of exon 7. The SMN1 minigene construct is referred to as SMN1-A.
Protocol. HEK293H cells (10,000 cells/well/199 μL) were transfected, using FuGENE-6 reagent, in a 96-well plate with 15 ng of the SMN1-A minigene reporter plasmid per well. Cells were incubated for 24 hours following transfection. Test compounds were serially diluted 3.16-fold in 100% DMSO to generate a 7-point concentration curve. A solution of test compound (1 μL, 200× in DMSO) was added to each test well. 1 μL DMSO was added to each control well. The plate was incubated for 7 hours in a cell culture incubator (37° C., 5% CO2, 100% relative humidity). The cells were then lysed in Cells-To-Ct lysis buffer and the lysates were stored at −80° C.
Two SMN spliced mRNA are generated from the SMN1 minigene. The term “SMN1 minigene FL” refers to the first spliced product containing exon 7, corresponding to full length SMN1 mRNA. The term “SMN1 minigene Δ7” refers to the second product lacking exon 7.
SMN1 minigene FL and SMN1 minigene Δ7 mRNA are amplified using the primers in Table 11. Primer SMN Forward C (SEQ ID NO. 11) hybridizes to a nucleotide sequence in exon 6 (nucleotide 43 to nucleotide 63), primer SMN Reverse A (SEQ ID NO. 2) hybridizes to a nucleotide sequence in the coding sequence of Firefly luciferase. The combination of these two oligonucleotides detects only SMN1 or SMN2 minigenes (RT-PCR) and will not detect endogenous SMN1 or SMN2 genes. Since the HEK293H cells used in Example 16 were transfected with only the human SMN1 minigene, RT-PCR can visualize and quantify only SMN1 minigene FL and SMN1 minigene Δ7 mRNA.
To synthesize cDNA, 5 μL of lysate, 4 μL of 5× iScript reaction mix, 1 μL of reverse transcriptase, and 10 μL of water are combined and incubated 5 min at 25° C. followed by 30 min at 42° C., followed by 5 min at 85° C. The cDNA solution is stored at −20° C.
To perform endpoint PCR, 5 μL of cDNA, 0.2 μL of 100 μM forward primer, 0.2 μL of 100 μM reverse primer, and 22.5 μL of polymerase super mix are combined in a 96 well semiskirted PCR plate. […]

Row | Structure (SMILES) | SMN1 minigene FL mRNA (gel band) | SMN1 minigene Δ7 mRNA (gel band)
1 | COc1ccc(-c2cc(=O)c3cc(N4CCN[C@@H](C)C4)ccc3o2)cc1F [Cpd 38, 2-(3-fluoro-4-methoxyphenyl)-6-[(3S)-3-methylpiperazin-1-yl]-4H-chromen-4-one] | progressively more SMN1 minigene FL mRNA; also recorded: dose dependent increase in SMN1 minigene full-length mRNA | less SMN1 minigene Δ7 mRNA; also recorded: dose dependent decrease in SMN1 minigene Δ7 mRNA
2 | C[C@@H]1CN(c2ccc3oc(-c4cn5ccccc5n4)cc(=O)c3c2)C[C@H](C)N1 [Cpd 17, 6-[(3R,5S)-3,5-dimethylpiperazin-1-yl]-2-(imidazo[1,2-a]pyridin-2-yl)-4H-chromen-4-one] | progressively more SMN1 minigene FL mRNA; also recorded: dose dependent increase in SMN1 minigene full-length mRNA | less SMN1 minigene Δ7 mRNA; also recorded: dose dependent decrease in SMN1 minigene Δ7 mRNA
